Entries after “also recorded” stand apart in the source; their conditions may differ.
Assays:
[1] = test system: proteasome ChT-L activity in SK-N-SH (ATCC HTB-11) cell lysates; experiment: ChT-L proteasome activity in lysates of treated SK-N-SH cells; format: cell-based, human; details: SK-N-SH cells; for Proteasome ChT-L activity in lysates of treated cells versus control lysates (in words): 1 µM peptide, 24 h, 1 μg lysate, 50 μM Suc-LLVY-AMC, n = 3–4
Procedure: […] The content of live cells was determined by the Trypan Blue-exclusion assay. The cells were harvested, washed twice in PBS, resuspended in dilution buffer (see above) and stored in −80 °C. To prepare lysates the thawed preparations were vortexed with glass beads and centrifuged for 5 min 5000× g (4 °C). The supernatant was centrifuged for 20 min 14,000× g (4 °C). The resulting supernatant—“crude lysate” was diluted to 1 mg/mL of total protein with dilution buffer. 1 μg of lysate per assay (reaction buffer: 50 mM Tris/HCl pH 8, 0.1 mM MgCl2, 0.2 mM ATP, 0.1 mM dithiothreitol, 50 μM Suc-LLVY-AMC) was used for determination of ChT-L activity in a 96-well format, as above.

[2] = biological target: T1, core proteasome, trypsin-like (T-L) activity (Homo sapiens, UniProt P25787+P60900); experiment: T-L peptidase activity of latent 20S proteasome (Boc-LRR-AMC); format: biochemical; details: 100 μM Boc-LRR-AMC, n = 3–4
T1 construct: Human housekeeping core (20S) proteasome purified from erythrocytes; purchased Boston Biochem, Inc. or Enzo Life Sciences, Inc; host or cells: human erythrocytes (natural source)
Procedure: Human housekeeping core (20S) proteasome purified from erythrocytes was purchased from Boston Biochem, Inc. (Cambridge, MA) or from Enzo Life Sciences, Inc. (Farmingdale, NY). Multiple batches of the proteasomes were used and performed reproducibly. The stock proteasome was diluted to 0.2 mg/mL working solution in “dilution buffer” (50 mM Tris/HCl, pH 8, 20% glycerol). The following model peptide substrates, all releasing fluorescent 7-amino-4-methylcoumarin (AMC) reporter group after cleavage, were used: succinyl-LeuLeuValTyr-AMC (for the ChT-L peptidase; SucLLVY-AMC; Bachem Bioscience Inc., Philadelphia, PA), butoxycarbonyl-LeuArgArg-AMC (T-L; Bachem Bioscience Inc., Philadelphia, PA) and carbobenzoxy- LeuLeuGlu-AMC (PGPH; Enzo Life Sciences Inc., Farmingdale, NY). The substrates were used at concentration of 50 μM (ChT-L) or 100 μM (T-L, PGPH). […] After mixing, the plate was transferred to a Fluoroskan Ascent plate reader (Thermo Fisher Scientific Inc., Waltham, MA) for 1 h (37 °C), with fluorescence readouts once per minute. […] The reaction rates were calculated from a linear segment of kinetic curves constructed from measurements in 1-min intervals. Reaction rates were calculated using a linear fit performed with the Slope Analyser and Enzyme Kinetics applications launched within Origin Pro 2019 (OriginLab Corporation, Northampton, MA). […]

Compound | Proteasome ChT-L activity in lysates of treated cells versus control lysates (in words) [1] | Effect on T-L activity (in words) [2] | Dose dependent proteasome activation, 4 h versus 24 h exposure (in words) ([1]; 0.5 or 1.0 µM, 4 or 24 h)
NCCCC[C@H](NC(=O)[C@H](CCCCN)NC(=O)[C@H](CCCCN)NC(=O)c1cc(NC(=O)[C@H](CCCCN)NC(=O)[C@H](CCCCN)NC(=O)[C@@H](N)CCCCN)cc(NC(=O)[C@H](CCCCN)NC(=O)[C@H](CCCCN)NC(=O)[C@@H](N)CCCCN)c1)C(=O)O [(8)] | significantly higher than activity in control lysates | weak inhibitory effects; also recorded: did not seem to significantly affect | 
N=C(N)NCCC[C@H](NC(=O)CN)C(=O)N[C@@H](CCCCN)C(=O)N[C@@H](CCCCN)C(=O)N[C@@H](CCCNC(=N)N)C(=O)N[C@@H](CCCNC(=N)N)C(=O)N[C@@H](CCC(N)=O)C(=O)N1Cc2ccccc2C[C@H]1C(=O)N1[C@@H](C(=O)N[C@@H](CCCNC(=N)N)C(=O)N2CCC[C@H]2C(=O)N[C@@H](CO)C(=O)O)C[C@H]2CCCC[C@H]21 [(5)] | significantly higher than activity in control lysates | weak inhibitory effects; also recorded: did not seem to significantly affect | substantially stronger after 4 h exposure than after 24 h
